Consider 27 molecules from patent US7683097B2, “Topoisomerase inhibitors” (Propharmacon Inc., priority 2004, dated 2010).

Common to all, as to format: cell-based
The test system of assay [1] is MCF-7. As to the kind of experiment: Cell proliferation assay, MCF-7. As to conditions: Homo sapiens, MCF7; MCF-7 cell line, Table II; read-out: Activity (IC50, cell proliferation). The protocol: The MCF-7 cell line, the MDR cell line, and the MCF-7/ADR cell line were used. Alamar Blue™ was used to quantitate cell viability.
The compounds listed in Table II were prepared using the procedures outlined in the above Examples.

The subject of a further assay is UO-31. Kind of assay: Cell proliferation assay, Renal Cancer UO-31. As to conditions: Homo sapiens, read-out: GI50 or IC50, Renal Cancer UO-31. How it is done:
(§1) The compounds listed in Table IV were prepared using the procedures outlined in the above Examples.

In a further assay the test system is HL60-MX1 (MDR). As to the kind of experiment: Cell proliferation assay, Leukemia HL60-MX1 (MDR). The conditions noted are these: read-out: GI50 or IC50, Leukemia HL60-MX1 (MDR). How it is done: (§2) The compounds listed in Table III were prepared using the procedures outlined in the above Examples.
For the next assay, the system named is NCI-ADR. Kind of assay: Cell proliferation assay, Breast Cancer NCI-ADR. The conditions noted are these: Homo sapiens, NCI/ADR-RES; read-out: GI50 or IC50, Breast Cancer NCI-ADR. How it is done: as §1
For the next assay, the system named is MES-SA/Dx5. Kind of assay: Cell proliferation assay, Uterine MES-SA/Dx5. The conditions noted are these: Homo sapiens, read-out: GI50 or IC50, Uterine MES-SA/Dx5. How it is done: as §1
A further assay relates to NCI-H460. As to the kind of experiment: Cell proliferation assay, NSC Lung Cancer NCI-H460. As to conditions: Homo sapiens, read-out: GI50 or IC50, NSC Lung Cancer NCI-H460. The protocol: as §2
The test system of the next assay is SK-MEL-2. As to the kind of experiment: Cell proliferation assay, Melanoma SK-MEL-2. As to conditions: Homo sapiens, read-out: GI50 or IC50, Melanoma SK-MEL-2. The protocol:
as §1

The next assay concerns OVCAR-3. As to the kind of experiment: Cell proliferation assay, Ovarian Cancer OVCAR-3. As to conditions: Homo sapiens, read-out: GI50 or IC50, Ovarian Cancer OVCAR-3. The protocol: as §1
A further assay has as its system SF-268. Kind of assay: Cell proliferation assay, CNS Cancer SF-268. As to conditions: Homo sapiens, read-out: GI50 or IC50, CNS Cancer SF-268. The protocol:
as §2

Another assay deals with PC-3. Kind of assay: Cell proliferation assay, Prostate Cancer PC-3. The conditions noted are these: Homo sapiens, read-out: GI50 or IC50, Prostate Cancer PC-3. The protocol: as §1
Assay [2] deals with MCF-7. As to the kind of experiment: Cell proliferation assay (panel), Breast Cancer MCF-7. As to conditions: Homo sapiens, MCF7; read-out: GI50 or IC50, Breast Cancer MCF-7. How it is done: as §1
Another assay concerns HCT-15. Kind of assay: Cell proliferation assay, Colon Cancer HCT-15. As to conditions: Homo sapiens, read-out: GI50 or IC50, Colon Cancer HCT-15. How it is done:
as §2

For the next assay, the system named is H69-AR (MDR). Kind of assay: Cell proliferation assay, SC Lung Cancer H69-AR (MDR). The conditions noted are these: Homo sapiens, H69AR; read-out: GI50 or IC50, SC Lung Cancer H69-AR (MDR). The protocol:
as §2

Turning to `O=C(NCCN1CCCC1)c1cccc(-c2ccc(-c3ccccc3)cc2)c1`, in the assay with MCF-7 [1], the IC50 lay within 1000 to 10000 nM.
`COc1ccc(NC(=O)c2ccc(Cl)c(-c3ccc(-c4ccncc4)cc3)c2)cn1` [Compound 17, 6-Chloro-4′-pyridin-4-yl-biphenyl-3-carboxylic acid (6-methoxy-pyridin-3-yl)-amide]: the IC50 in the assay with UO-31, with HL60-MX1 (MDR), with NCI-ADR, in the assay with MES-SA/Dx5, with NCI-H460 and in the assay with SK-MEL-2 was ≤ 1000 nM in each case. The IC50 in the assay on OVCAR-3, with SF-268, in the assay on PC-3, in the assay with MCF-7 [2] and with HCT-15 was ≤ 1000 nM in each case.
In the case of `O=C(Nc1ccc(Cl)nc1)c1ccc(Cl)c(-c2ccc(-c3ccccc3)cc2)c1` [Compound 13, 6-Chloro-[1,1′;4′,1″]terphenyl-3-carboxylic acid (6-chloro-pyridin-3-yl)-amide], the IC50 in the assay with UO-31 was 1000 to 25000 nM; in the assay on NCI-H460, ≤ 1000 nM; in the assay on SK-MEL-2, 1000 to 25000 nM; in the assay with OVCAR-3 it was ≤ 1000 nM; with SF-268, 1000 to 25000 nM; in the assay with PC-3, ≤ 1000 nM. The IC50 in the assay on MCF-7 [2] and in the assay with HCT-15 was ≤ 1000 nM each time.
Consider `O=C(Nc1ccc(F)nc1)c1ccc(Cl)c(-c2ccc(-c3ccccc3)cc2)c1` [Compound 338, 6-Chloro-[1,1′;4′,1″]terphenyl-3-carboxylic acid (6-fluoro-pyridin-3-yl)-amide], for which the IC50 in the assay with UO-31 was 1000 to 25000 nM; in the assay on NCI-H460, ≤ 1000 nM; in the assay with SK-MEL-2 it was 1000 to 25000 nM; in the assay on OVCAR-3, ≤ 1000 nM; in the assay on SF-268, ≤ 1000 nM; in the assay on PC-3 it was ≤ 1000 nM. The IC50 in the assay with MCF-7 [2] and with HCT-15 was ≤ 1000 nM each time.
On to `COc1ccc(NC(=O)c2ccc(C)c(-c3ccc(-c4ccccn4)cc3)c2)cn1` [Compound 40, 6-Methyl-4′-pyridin-2-yl-biphenyl-3-carboxylic acid (6-methoxy-pyridin-3-yl)-amide], for which the IC50 in the assay on H69-AR (MDR) is ≤ 1000 nM; in the assay on HL60-MX1 (MDR), ≤ 1000 nM; in the assay with MES-SA/Dx5, ≤ 1000 nM; in the assay with NCI-H460, ≤ 1000 nM; in the assay on SK-MEL-2 it was > 25000 nM; in the assay with OVCAR-3 it was ≤ 1000 nM. Moreover, the IC50 in the assay on SF-268, in the assay on PC-3, in the assay with MCF-7 [2] and in the assay with HCT-15 was ≤ 1000 nM each time.
On to `COc1ccc(NC(=O)c2ccc(Cl)c(-c3ccc(-c4cccc(S(C)(=O)=O)c4)cc3)c2)cn1`, for which, in the assay on MCF-7 [1], the IC50 was < 1000 nM.
The same measure, in the same setting: the result for `C=C[S+]([O-])c1ccc(NC(=O)c2ccc(Cl)c(-c3ccc(-c4ccccc4)cc3)c2)cn1` (stereo not shown) reads 1000 to 10000 nM; that for `O=C(NCCc1c[nH]cn1)C1Cc2ccccc2CN1C(=O)c1ccc(Cl)c(-c2ccc(-c3ccccc3)cc2)c1` (stereo not shown), > 10000 nM.
On the same count and under the same terms, the result for `CC(C)(C)OC(=O)NOC(=O)c1ccc(Cl)c(-c2ccc(-c3ccccc3)cc2)c1` reads > 10000 nM.
As for `Cc1ccc(NC(=O)c2ccc(Cl)c(-c3ccc(-c4ccccc4)cc3)c2)cc1` [Compound 20, 6-Chloro-[1,1′;4′,1″]terphenyl-3-carboxylic acid p-tolylamide], the IC50 in the assay with UO-31 is 1000 to 25000 nM; with NCI-H460, 1000 to 25000 nM; in the assay with SK-MEL-2 it was > 25000 nM; in the assay on OVCAR-3, 1000 to 25000 nM; in the assay with SF-268, 1000 to 25000 nM; in the assay with PC-3, 1000 to 25000 nM. Further, the IC50 was ≤ 1000 nM in the assay with MCF-7 [2] and > 25000 nM with HCT-15.
Turning to `COc1ccc(NC(=O)c2ccc(Cl)c(-c3cccc(-c4ccccc4)c3)c2)cn1` [Compound 68, 6-Chloro-[1,1′;3′,1″]terphenyl-3-carboxylic acid (6-methoxy-pyridin-3-yl)-amide], the IC50 in the assay with NCI-H460 and with MCF-7 [2] was ≤ 1000 nM throughout.
With `CS(=O)(=O)c1ccc(-c2cc(C(=O)NC3=NCCS3)ccc2Cl)cc1`, in the assay on MCF-7 [1], the IC50 is 1000 to 10000 nM.
Still for that read-out and setting: the result for `CCN(CC)CCNC(=O)c1ccc(Cl)c(-c2ccc(-c3ccccc3)cc2)c1` reads < 1000 nM.
As for `O=C(NCC(c1cccnc1)N1CCCC1)c1ccc(Cl)c(-c2ccc(-c3ccccc3)cc2)c1` (stereo not shown) [Compound 32, 6-Chloro-[1,1′;4′,1″]terphenyl-3-carboxylic acid (2-pyridin-3-yl-2-pyrrolidin-1-yl-ethyl)-amide], the IC50 in the assay with H69-AR (MDR) is ≤ 1000 nM; in the assay on HL60-MX1 (MDR), 1000 to 25000 nM; in the assay with NCI-ADR, 1000 to 25000 nM; in the assay on MES-SA/Dx5, ≤ 1000 nM; in the assay on SF-268 it was 1000 to 25000 nM; in the assay with MCF-7 [2], ≤ 1000 nM.
For the molecule `COc1ccc(NC(=O)c2ccc(Cl)c(-c3ccc(-c4cccc(O)c4)cc3)c2)cn1`, the IC50 in the assay with MCF-7 [1] was < 1000 nM.
`O=C(Nc1ccc(N2CCNCC2)nc1)c1ccc(Cl)c(-c2ccc(-c3ccccc3)cc2)c1` [Compound 36, 6″-Chloro-[1,1′;4′,1″]terphenyl-3″-carboxylic acid (6-piperazin-1-yl-pyridin-3-yl)-amide]: the IC50 with NCI-ADR, in the assay on MES-SA/Dx5, in the assay with NCI-H460 and in the assay with MCF-7 [2] was ≤ 1000 nM throughout.
With `CCN(C(=O)c1ccc(Cl)c(-c2ccc(-c3ccccc3)cc2)c1)c1ccc2c(c1)OCO2`, the IC50 in the assay on MCF-7 [1] is > 10000 nM.
As to `O=C(NCCN1CCCC1)c1ccc(Cl)c(-c2ccc(-c3ccccc3)cc2)c1` [Compound 26, 6-Chloro-[1,1′;4′,1″]terphenyl-3-carboxylic acid (2-pyrrolidin-1-yl-ethyl)-amide], the IC50 with UO-31, in the assay on NCI-H460, in the assay on SK-MEL-2, in the assay with OVCAR-3, in the assay on SF-268 and in the assay on PC-3 was 1000 to 25000 nM each time. The IC50 in the assay on MCF-7 [2] and in the assay with HCT-15 was 1000 to 25000 nM throughout.
With `COc1ncc(NC(=O)c2ccc(Cl)c(-c3ccc(-c4ccccc4)cc3)c2)cn1`, in the assay on MCF-7 [1], the IC50 is < 1000 nM.
Still for that read-out and setting: with `O=C(Nc1cccnc1Cl)c1ccc(Cl)c(-c2ccc(-c3ccccc3)cc2)c1` the figure was > 10000 nM.
Consider `COc1ccc(NC(=O)c2ccc(Cl)c(-c3cccc(O)c3)c2)cn1`, for which the IC50 in the assay with MCF-7 [1] is < 1000 nM.
With `COc1ccc(NC(=O)c2ccc(Cl)c(-c3ccc(-c4ccccc4)c(F)c3)c2)cn1` [Compound 6, 6″-Chloro-2′-fluoro-[1,1′;4′,1″]terphenyl-3″-carboxylic acid (6-methoxy-pyridin-3-yl)-amide], the IC50 with UO-31 was 1000 to 25000 nM; with H69-AR (MDR) it was ≤ 1000 nM; with HL60-MX1 (MDR), ≤ 1000 nM; in the assay with NCI-ADR, ≤ 1000 nM; with MES-SA/Dx5 it was ≤ 1000 nM; in the assay with NCI-H460 it was ≤ 1000 nM. The IC50 in the assay on SK-MEL-2 is 1000 to 25000 nM; in the assay on OVCAR-3, ≤ 1000 nM; in the assay on SF-268, 1000 to 25000 nM; in the assay on PC-3 it was ≤ 1000 nM; with MCF-7 [2], ≤ 1000 nM; in the assay on HCT-15 it was ≤ 1000 nM.
Regarding `O=C(NC(CC1CCCCC1)C(=O)O)c1ccc(Cl)c(-c2cccc(-c3ccccc3)c2)c1` (stereo not shown) [Compound 236, 2-[(6-Chloro-[1,1′;3′,1″]terphenyl-3-carbonyl)-amino]-3-cyclohexyl-propionic acid], the IC50 in the assay with SF-268 and in the assay with MCF-7 [2] was > 25000 nM in each case.
Regarding `O=C(NC(CCc1ccccc1)C(=O)O)c1ccc(Cl)c(-c2cccc(-c3ccccc3)c2)c1` (stereo not shown) [Compound 223, 2-[(6-Chloro-[1,1′;3′,1″]terphenyl-3-carbonyl)-amino]-4-phenyl-butyric acid], the IC50 in the assay on SF-268 and with MCF-7 [2] was > 25000 nM each time.
As for `COc1ccc(NC(=O)c2ccc(Cl)c(-c3cccc(C(N)=O)c3)c2)cn1`, the IC50 in the assay on MCF-7 [1] is < 1000 nM.
Still for that read-out and setting: the result for `O=C(Nc1nnc(C(F)(F)F)s1)c1ccc(Cl)c(-c2ccc(-c3ccccc3)cc2)c1` reads 1000 to 10000 nM.
On to `COc1ccc(NC(=O)c2ccc(Cl)c(-c3ccc(-c4ccccc4)cc3)c2)cc1` [Compound 303, 6″-Chloro-[1,1′;4′,1″]terphenyl-3″-carboxylic acid (4-methoxy-phenyl)-amide], for which the IC50 in the assay with UO-31 was 1000 to 25000 nM; in the assay with NCI-H460, ≤ 1000 nM; in the assay on SK-MEL-2 it was > 25000 nM; with OVCAR-3, ≤ 1000 nM; with SF-268, ≤ 1000 nM; in the assay with PC-3, ≤ 1000 nM. The IC50 in the assay with MCF-7 [2] and in the assay with HCT-15 was ≤ 1000 nM in each case.
